# Measurements published in PMC11901902, “Design, Synthesis, and Cytotoxicity Evaluation of Novel Indolin-2-One Based Molecules on Hepatocellular Carcinoma HepG2 Cells as Protein Kinase Inhibitors” (Molecules, 2025).
# Columns and labels:
# p21 = assay: ELISA of p21 in treated HepG-2 cells; type: cell-based, human; settings: HepG-2, compound at its IC50, 24 h
# Description: (§1) HepG2 cells were cultured in RPMI 10% + 5%FBS penicillin/streptomycin and were incubated at a humidity 5% CO2 and maintained at 37 °C. […] HepG2 cells were cultured as a monolayer in T-25 flasks and were seeded to attain 30% confluency prior to treatment. The main 100 mM stock dissolved in DMSO was diluted with the cell culture medium in order to reach the previously determined IC50 concentration of each of the three preparations. After that, HepG2 cells were collected via trypsinization and centrifuged at 10,000 rpm. The pellet was then rinsed with PBS and lysed in RIPA lysis buffer at 4 °C for 45 min, then centrifuged at 14,000 rpm for 20 min to remove the cellular debris. Lysates were then collected and stored at […] for protein determination. The levels of p53, p21, Fas-L, Bax, Bcl-2, and caspase 3/7 were assessed using the human P53 ELISA kit (Catalog No. ABIN6962151), P21 ELISA kit (Catalog No. ABIN6966175), Human Apoptosis Ligand (FAS-L), Bax ELISA kit, Human Factor-Related. Bcl-2 ELISA kit ELISA kit, and caspase3/7 ELISA kit (Elabscience Biotechnology Co., Wuhan, Hubei, China). The procedure of the used kits was done according to the manufacturer’s instructions. Briefly, equal amounts of cell lysates were loaded and then probed with specific antibodies. The samples were measured at 450 nm in ROBONEK P2000 ELISA reader. […]
# EGFR = molecular target: T1, EGFR (Homo sapiens, UniProt P00533); assay: Kinase-Glo Plus luminescence kinase inhibition assay, EGFR; type: biochemical; settings: 10 µM ATP, 30 °C, 40 min; mean ± SEM
# T1 construct: purchased BPS Bioscience 40721
# T1 sequence (P00533 25-1210): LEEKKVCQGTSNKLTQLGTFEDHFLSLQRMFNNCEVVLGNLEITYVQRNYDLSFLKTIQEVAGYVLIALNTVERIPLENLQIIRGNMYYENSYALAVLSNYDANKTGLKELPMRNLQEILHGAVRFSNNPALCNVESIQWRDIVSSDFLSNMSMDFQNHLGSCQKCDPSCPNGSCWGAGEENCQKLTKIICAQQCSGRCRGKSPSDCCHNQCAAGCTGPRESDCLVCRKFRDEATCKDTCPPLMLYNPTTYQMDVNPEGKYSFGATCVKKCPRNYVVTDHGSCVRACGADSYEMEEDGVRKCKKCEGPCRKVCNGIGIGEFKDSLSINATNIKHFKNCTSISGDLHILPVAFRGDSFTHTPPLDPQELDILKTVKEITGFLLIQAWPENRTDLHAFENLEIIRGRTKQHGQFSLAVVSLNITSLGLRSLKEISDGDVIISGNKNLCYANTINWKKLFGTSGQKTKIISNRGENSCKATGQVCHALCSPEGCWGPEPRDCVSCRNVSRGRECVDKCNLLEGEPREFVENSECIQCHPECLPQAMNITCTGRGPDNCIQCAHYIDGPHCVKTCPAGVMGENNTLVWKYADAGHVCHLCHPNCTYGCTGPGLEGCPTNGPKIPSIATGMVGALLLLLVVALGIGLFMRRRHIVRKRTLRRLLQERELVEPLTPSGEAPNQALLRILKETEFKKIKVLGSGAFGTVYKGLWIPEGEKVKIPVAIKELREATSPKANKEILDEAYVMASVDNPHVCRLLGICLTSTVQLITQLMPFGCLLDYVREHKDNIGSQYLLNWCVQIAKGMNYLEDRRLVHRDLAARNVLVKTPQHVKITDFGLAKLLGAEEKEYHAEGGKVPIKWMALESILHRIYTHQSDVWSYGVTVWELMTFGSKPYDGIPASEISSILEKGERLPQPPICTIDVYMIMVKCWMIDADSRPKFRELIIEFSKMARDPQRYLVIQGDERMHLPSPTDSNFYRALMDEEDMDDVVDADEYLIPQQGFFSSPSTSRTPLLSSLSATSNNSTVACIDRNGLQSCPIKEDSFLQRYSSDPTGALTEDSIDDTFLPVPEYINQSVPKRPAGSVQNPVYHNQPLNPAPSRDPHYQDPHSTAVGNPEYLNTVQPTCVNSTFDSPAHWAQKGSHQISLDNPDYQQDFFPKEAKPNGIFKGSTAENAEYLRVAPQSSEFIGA
# Description: The enzyme inhibition assay for the tested molecules was performed at BPS Bioscience Corporation, San Diego, CA, USA. The following materials served as the enzyme sources, Poly (Glu, Tyr) sodium salt (4:1, Glu:Tyr) (Sigma#P7244) served as the standardized substrate, and the Kinase-Glo Plus Luminescence kinase assay kit (Promega # V3772) was used. […] Glo Plus luminescence kinase assay kits. The assays were performed using Kinase-Glo Plus luminescence (Promega Corporation, Madison, WI, USA).
# The tested molecules 9, 20, and indurbin were diluted to 100 µL in DMSO (10%), and 5 µL of the solution was added to a 50-µL enzyme reaction until the final concentration of DMSO was 1% in all of reactions. The enzymatic reactions were conducted at 30 °C for 40 min. The reaction mixture contained enzyme substrate and respective kinases. After the enzymatic reaction, 50 µL of enzyme-Glo Plus luminescence […] assay solution (Promega) was added to each reaction, and the plate was incubated for 5 min at room temperature. The luminescence signal was measured using a BioTek Synergy 2 microplate reader. The luminescence data were analyzed using the computer software GraphPad Prism. The difference between luminescence intensities in the absence of enzyme (Lut) and in the presence of enzyme (Luc) was defined as 100% activity (Lut − Luc). […] The IC50 value was determined using GraphPad Prism software. […]
# Glo Plus luminescence kinase assay kits were used in these assays. […] The assay measures kinase activity by quantitating the amount of ATP remaining in the solution following kinase reaction. […] After the enzymatic reaction, 50 µL of Kinase-Glo Plus Luminescence kinase assay solution (Promega) was added to each reaction, and the plate was incubated for 5 min at room temperature. The luminescence signal was measured using a BioTek Synergy 2 microplate reader. […] The luminescence data were analyzed using the Graphpad Prism software.
# Fas-L = assay: ELISA of Fas-L in treated HepG-2 cells; type: cell-based, human; settings: for increase of Fas-L expression compared to untreated control: HepG-2, compound at its IC50, 24 h; for Concentration of Fas L: HepG-2, compound at its IC50, ± S.E.M, control 15.33±1.71
# Description: HepG2 cells were cultured in RPMI 10% + 5%FBS penicillin/streptomycin and were incubated at a humidity 5% CO2 and maintained at 37 °C. […] HepG2 cells were cultured as a monolayer in T-25 flasks and were seeded to attain 30% confluency prior to treatment. The main 100 mM stock dissolved in DMSO was diluted with the cell culture medium in order to reach the previously determined IC50 concentration of each of the three preparations. After that, HepG2 cells were collected via trypsinization and centrifuged at 10,000 rpm. The pellet was then rinsed with PBS and lysed in RIPA lysis buffer at 4 °C for 45 min, then centrifuged at 14,000 rpm for 20 min to remove the cellular debris. Lysates were then collected and stored at […] for protein determination. The levels of p53, p21, Fas-L, Bax, Bcl-2, and caspase 3/7 were assessed using the human P53 ELISA kit (Catalog No. ABIN6962151), P21 ELISA kit (Catalog No. ABIN6966175), Human Apoptosis Ligand (FAS-L), Bax ELISA kit, Human Factor-Related. Bcl-2 ELISA kit ELISA kit, and caspase3/7 ELISA kit (Elabscience Biotechnology Co., Wuhan, Hubei, China). The procedure of the used kits was done according to the manufacturer’s instructions. Briefly, equal amounts of cell lysates were loaded and then probed with specific antibodies. The samples were measured at 450 nm in ROBONEK P2000 ELISA reader. The analysis was confirmed with three different sets of extracts. All experiments were done in triplicate (Tables S6–S9).
# Bax = assay: ELISA of Bax in treated HepG-2 cells; type: cell-based, human; settings: HepG-2, compound at its IC50; ± S.E.M; control 18.93±11.71
# Description: as §1
SMILES,upregulation of p21 expression compared to untreated cells (p21) [fold],IC50 (EGFR) [nM],increase of Fas-L expression compared to untreated control (Fas-L) [fold],Concentration of Fas L (Fas-L) [pg/mL],Concentration of Bax (Bax) [pg/mL]
"O=C1Nc2ccc(Cl)cc2C1=Nc1ccc2nc[nH]c(=O)c2c1 [Compound 9, 6-(5-Chloro-2-oxo-1,2-dihydro-indol-3-ylideneamino)-3H-quinazolin-4-one]",4.52,87.5 ± 6.71,5.7,86.11 ± 8.05,88.12 ± 5.27
"O=C1Nc2ccc(Cl)cc2C1=Nc1ccc(-c2nc3ccccc3c(=O)[nH]2)cc1 [Compound 20, 2-[4-(5-Chloro-2-oxo-1,2-dihydro-indol-3-ylideneamino)-phenyl]-3H-quinazolin-4-one]",3.9,32.7 ± 1.61,4.1,62.06 ± 4.62,108.32 ± 9.82
